Patent publication US20080275009A1, “ORAL ADMINISTRATION OF N-(2-CHLORO-6-METHYLPHENYL)-2-[[6-[4-(2-HYDROXYETHYL)-1-PIPERAZINYL]-2-METHYL-4-PYRIMIDINYL]AMINO]-1,3-THIAZOLE-5-CARBOXAMIDE AND SALTS THEREOF” (Bristol-Myers Squibb Company, priority 2005, published 2008)

How the values were obtained:
[1] = aqueous solubility of Compound I as a function of pH; format: physicochemical; details: aqueous medium, pH of 2 compared with pH of 5
PDGF receptor = details: general statement, method or value not given; cited from earlier work
EPH receptor = details: general statement, method or value not given; cited from earlier work

## Cc1nc(Nc2ncc(C(=O)Nc3c(C)cccc3Cl)s2)cc(N2CCN(CCO)CC2)n1 [Compound I, N-(2-chloro-6-methylphenyl)-2-((6-(4-(2-hydroxyethyl)-1-piperazinyl)-2-methyl-4-pyrimidinyl)amino)-1,3-thiazole-5-carboxamide]
[1]
  aqueous solubility: higher solubility at a pH of 2 than at a pH of 5
PDGF receptor
  inhibition of PDGF receptor: potent inhibitor
EPH receptor
  inhibition of EPH receptor: potent inhibitor
